# According to ChEMBL document CHEMBL4342498, “Design and Discovery of an Orally Efficacious Spiroindolinone-Based Tankyrase Inhibitor for the Treatment of Colon Cancer” (J Med Chem, 2020):
# What was measured:
# Tankyrase 1/2 [1] = molecular target: T1, Tankyrase 1/2 (Homo sapiens, UniProt Q9H2K2+O95271); settings: hek293
# T1 sequence (Q9H2K2 whole entry): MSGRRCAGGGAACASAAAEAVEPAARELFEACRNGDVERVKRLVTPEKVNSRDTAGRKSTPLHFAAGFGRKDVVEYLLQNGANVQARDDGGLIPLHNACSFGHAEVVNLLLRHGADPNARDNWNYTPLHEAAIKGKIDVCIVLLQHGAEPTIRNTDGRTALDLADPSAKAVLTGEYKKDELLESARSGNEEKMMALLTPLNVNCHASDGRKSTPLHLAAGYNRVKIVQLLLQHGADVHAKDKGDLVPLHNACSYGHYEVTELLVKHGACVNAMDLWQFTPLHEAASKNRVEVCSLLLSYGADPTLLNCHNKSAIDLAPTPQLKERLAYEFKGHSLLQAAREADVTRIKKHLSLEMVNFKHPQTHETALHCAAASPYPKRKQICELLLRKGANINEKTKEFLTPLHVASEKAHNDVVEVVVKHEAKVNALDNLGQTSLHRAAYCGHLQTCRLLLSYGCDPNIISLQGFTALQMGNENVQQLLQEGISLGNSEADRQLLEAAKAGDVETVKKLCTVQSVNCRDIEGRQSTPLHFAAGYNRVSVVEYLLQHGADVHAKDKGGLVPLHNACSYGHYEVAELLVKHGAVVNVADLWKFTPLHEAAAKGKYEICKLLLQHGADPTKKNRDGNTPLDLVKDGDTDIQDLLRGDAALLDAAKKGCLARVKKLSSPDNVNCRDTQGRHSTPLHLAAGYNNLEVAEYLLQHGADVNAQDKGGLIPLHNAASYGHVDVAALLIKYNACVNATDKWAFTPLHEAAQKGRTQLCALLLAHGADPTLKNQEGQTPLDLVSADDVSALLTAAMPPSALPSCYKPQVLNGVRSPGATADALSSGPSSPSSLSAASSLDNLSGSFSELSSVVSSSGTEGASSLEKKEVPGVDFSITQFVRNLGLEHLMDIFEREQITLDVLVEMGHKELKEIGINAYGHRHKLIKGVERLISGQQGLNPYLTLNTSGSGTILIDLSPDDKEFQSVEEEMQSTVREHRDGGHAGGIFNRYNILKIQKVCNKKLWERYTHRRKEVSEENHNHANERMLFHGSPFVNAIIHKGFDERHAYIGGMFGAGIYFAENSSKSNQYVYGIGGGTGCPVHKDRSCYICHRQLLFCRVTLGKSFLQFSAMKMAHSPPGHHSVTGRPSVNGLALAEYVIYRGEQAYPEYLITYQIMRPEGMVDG
# T1 sequence (O95271 whole entry): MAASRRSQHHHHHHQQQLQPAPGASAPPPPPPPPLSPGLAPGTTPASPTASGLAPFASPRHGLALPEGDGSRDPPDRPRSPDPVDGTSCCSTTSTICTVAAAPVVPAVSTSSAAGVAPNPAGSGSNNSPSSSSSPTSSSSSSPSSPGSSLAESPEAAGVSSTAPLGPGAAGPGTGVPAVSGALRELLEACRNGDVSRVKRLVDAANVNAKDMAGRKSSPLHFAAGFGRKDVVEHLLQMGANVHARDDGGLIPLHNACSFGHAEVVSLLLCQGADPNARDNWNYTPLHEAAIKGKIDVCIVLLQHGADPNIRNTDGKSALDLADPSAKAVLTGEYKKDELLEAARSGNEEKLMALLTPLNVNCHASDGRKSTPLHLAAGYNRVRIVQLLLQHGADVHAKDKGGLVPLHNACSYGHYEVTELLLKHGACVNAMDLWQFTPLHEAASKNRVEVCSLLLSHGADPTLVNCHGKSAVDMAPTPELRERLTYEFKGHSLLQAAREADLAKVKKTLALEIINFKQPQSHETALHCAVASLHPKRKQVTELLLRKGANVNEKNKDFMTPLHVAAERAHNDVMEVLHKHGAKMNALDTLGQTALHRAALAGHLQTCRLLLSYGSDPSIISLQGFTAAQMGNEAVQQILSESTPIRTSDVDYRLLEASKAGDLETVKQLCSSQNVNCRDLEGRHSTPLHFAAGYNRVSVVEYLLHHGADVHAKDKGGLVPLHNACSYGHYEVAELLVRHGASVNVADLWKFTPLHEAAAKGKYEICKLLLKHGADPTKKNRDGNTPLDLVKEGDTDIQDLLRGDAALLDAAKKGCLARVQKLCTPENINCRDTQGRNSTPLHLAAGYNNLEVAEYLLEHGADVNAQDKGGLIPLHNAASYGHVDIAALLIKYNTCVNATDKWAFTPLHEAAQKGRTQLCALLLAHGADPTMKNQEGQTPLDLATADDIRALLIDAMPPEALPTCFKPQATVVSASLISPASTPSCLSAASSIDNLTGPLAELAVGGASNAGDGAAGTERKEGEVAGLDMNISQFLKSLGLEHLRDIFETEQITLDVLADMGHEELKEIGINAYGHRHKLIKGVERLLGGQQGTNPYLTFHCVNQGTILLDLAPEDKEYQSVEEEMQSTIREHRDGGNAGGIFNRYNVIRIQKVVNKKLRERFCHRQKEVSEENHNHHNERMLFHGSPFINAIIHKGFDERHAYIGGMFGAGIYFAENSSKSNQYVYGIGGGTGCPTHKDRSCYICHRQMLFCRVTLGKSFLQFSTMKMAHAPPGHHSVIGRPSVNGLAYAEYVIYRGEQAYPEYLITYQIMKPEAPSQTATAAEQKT
# Description: Inhibition of TNKS/TNKS2 (unknown origin) expressed in HEK293 cells assessed as reduction in Wnt-signaling measured after 24 hrs by TCF-luciferase reporter gene assay
# [2] = molecular target: T2, Poly [ADP-ribose] polymerase tankyrase-2 (Homo sapiens, UniProt Q9H2K2); experiment: Inhibition of recombinant human N-terminal TEV cleavage site-fused/FLAG-poly his-tagged TNKS2 ARC5-SAM-PARP domain (613 to 1166 residues) expressed in Escherichia coli assessed as reduction in auto-PARylation preincubated for 10 mins followed by biotinylated-NAD+ addition and measured after 45 mins by ELISA
# T2 sequence (Q9H2K2 whole entry): T1 sequence (Q9H2K2 whole entry)
# physchem = settings: phosphate buffered saline, pH 7.4
# [3] = molecular target: T3, Poly [ADP-ribose] polymerase tankyrase-1 (Homo sapiens, UniProt O95271)
# T3 sequence (O95271 whole entry): T1 sequence (O95271 whole entry)
# Description: Inhibition of recombinant human N-terminal TEV cleavage site-fused/FLAG-poly his-tagged TNKS SAM-PARP domain (1024 to 1327 residues) expressed in Escherichia coli assessed as reduction in auto-PARylation preincubated for 10 mins followed by biotinylated-NAD+ addition and measured after 45 mins by ELISA
# Tankyrase 1/2 [4] = molecular target: T1, Tankyrase 1/2
# Description: Inhibition of TNKS/TNKS2 (unknown origin) expressed in human DLD1 cells assessed as reduction in Wnt-signaling measured after 24 hrs by TCF-luciferase reporter gene assay
# [5] = Stability in human liver microsomes assessed as parent compound remaining at 1 uM measured after 60 mins in presence of NADPH by LC-MS/MS analysis; format: ADME, Microsome; settings: read-out: Stability
# MDR1 = experiment: Efflux ratio of permeability across basolateral to apical side over apical to basolateral side in MDCK2-MDR1 cells; format: ADME, cell-based, Canis lupus familiaris; settings: dog, MDCK-MDR1
# COLO 320DM = experiment: Antiproliferative activity against human COLO320DM cells assessed as inhibition of cell growth measured after 4 days by CellTiter-Glo assay; format: functional; settings: 96 h
# [6] = Efflux ratio of permeability across basolateral to apical side over apical to basolateral side in MDCK2 cells; format: ADME, cell-based, Canis lupus familiaris, MDCK-II; settings: dog, mdck
# [7] = Net efflux ratio of permeability across basolateral to apical side over apical to basolateral side in MDCK2-MDR1 cells to MDCK2 cells; format: ADME, cell-based, Canis lupus familiaris; settings: dog, mdck
# [8] = Stability in mouse liver microsomes assessed as parent compound remaining at 1 uM measured after 60 mins in presence of NADPH by LC-MS/MS analysis; format: ADME, Microsome; settings: read-out: Stability
smiles,measurement,setting,value
CN1CCC(Oc2cc(F)c3c(c2)N(C)C(=O)C32CCN(c3nc4c(c(=O)[nH]3)CCCN4C)CC2)CC1,IC50,Tankyrase 1/2 [1],0.1 nM
same,IC50,[2],21.2 nM
same,"solubility at 1 h, 200 µM",physchem,102 µg/mL
same,IC50,[3],6.1 nM
same,IC50,Tankyrase 1/2 [4],2.7 nM
same,"remaining at 1 h, 1 µM",[5],22.4%
same,efflux ratio,MDR1,11.7
same,GI50,COLO 320DM,660 nM
same,efflux ratio,[6],4.6
same,Ratio,[7],2.5
same,"remaining at 1 h, 1 µM",[8],60.3%
CN1CCCc2c1nc(N1CCC3(CC1)C(=O)N(C)c1cc(OCCN4CCCC4)cc(F)c13)[nH]c2=O,IC50,Tankyrase 1/2 [1],0.4 nM
same,IC50,[2],12.4 nM
same,"solubility at 1 h, 200 µM",physchem,100 µg/mL
same,IC50,[3],11.1 nM
same,IC50,Tankyrase 1/2 [4],6.6 nM
same,"remaining at 1 h, 1 µM",[5],61.5%
same,efflux ratio,MDR1,21.9
same,GI50,COLO 320DM,1080 nM
same,efflux ratio,[6],7.1
same,Ratio,[7],3.1
same,"remaining at 1 h, 1 µM",[8],100%
CN1CCCc2c1nc(N1CCC3(CC1)C(=O)N(C)c1cc(N4CCOCC4)cc(F)c13)[nH]c2=O,IC50,Tankyrase 1/2 [1],0.1 nM
same,IC50,[2],10.5 nM
same,"solubility at 1 h, 200 µM",physchem,72.2 µg/mL
same,IC50,[3],14.9 nM
same,IC50,Tankyrase 1/2 [4],2 nM
same,"remaining at 1 h, 1 µM",[5],6.3%
same,efflux ratio,MDR1,7.8
same,GI50,COLO 320DM,100 nM
same,efflux ratio,[6],1.9
same,Ratio,[7],4.1
same,"remaining at 1 h, 1 µM",[8],46.5%
CN1CCCc2c1nc(N1CCC3(CC1)C(=O)N(CS(C)(=O)=O)c1cc(F)cc(F)c13)[nH]c2=O,IC50,Tankyrase 1/2 [1],0.1 nM
same,IC50,[2],5.5 nM
same,"solubility at 1 h, 200 µM",physchem,3 µg/mL
same,IC50,[3],4.3 nM
same,IC50,Tankyrase 1/2 [4],5.7 nM
same,"remaining at 1 h, 1 µM",[5],4.1%
same,efflux ratio,MDR1,12
same,GI50,COLO 320DM,530 nM
same,efflux ratio,[6],3.3
same,Ratio,[7],3.6
same,"remaining at 1 h, 1 µM",[8],0.1%
C[C@@H]1CN(c2cc(F)c3c(c2)N(C)C(=O)C32CCN(c3nc4c(c(=O)[nH]3)CCCN4C)CC2)C[C@H](C)N1,IC50,Tankyrase 1/2 [1],0.1 nM
same,IC50,[2],20.2 nM
same,"solubility at 1 h, 200 µM",physchem,102 µg/mL
same,IC50,[3],11.1 nM
same,IC50,Tankyrase 1/2 [4],4.3 nM
same,"remaining at 1 h, 1 µM",[5],33%
same,efflux ratio,MDR1,23.1
same,GI50,COLO 320DM,850 nM
same,efflux ratio,[6],6.2
same,Ratio,[7],3.7
same,"remaining at 1 h, 1 µM",[8],82.7%
CN1CCCc2c1nc(N1CCC3(CC1)C(=O)N(C)c1cc(F)cc(F)c13)[nH]c2=O,IC50,Tankyrase 1/2 [1],3.9 nM
same,IC50,[2],10.7 nM
same,"solubility at 1 h, 200 µM",physchem,16 µg/mL
same,IC50,[3],7.9 nM
same,IC50,Tankyrase 1/2 [4],14.4 nM
same,"remaining at 1 h, 1 µM",[5],0.3%
same,efflux ratio,MDR1,3.1
same,GI50,COLO 320DM,220 nM
same,efflux ratio,[6],1.1
same,Ratio,[7],2.8
same,"remaining at 1 h, 1 µM",[8],0%
CN1CCCc2c1nc(N1CCC3(CC1)C(=O)N(C)c1cc(OCCN4CCOCC4)cc(F)c13)[nH]c2=O,IC50,Tankyrase 1/2 [1],0.3 nM
same,IC50,[2],17.1 nM
same,"solubility at 1 h, 200 µM",physchem,101 µg/mL
same,IC50,[3],9.2 nM
same,IC50,Tankyrase 1/2 [4],2.8 nM
same,"remaining at 1 h, 1 µM",[5],1.5%
same,efflux ratio,MDR1,29.1
same,GI50,COLO 320DM,330 nM
same,efflux ratio,[6],5.1
same,Ratio,[7],5.7
same,"remaining at 1 h, 1 µM",[8],41.4%
